Results from the NIST ThermoML archive (doi:10.1016/j.jct.2007.02.004).

Experiments:
[1] = 293.15 K; 101.33 kPa; Liquid
[2] = refractive index (Na D-line) (dimensionless); settings: 293.15 K; 101.33 kPa; Liquid; Standard Abbe refractometry
[3] = xn = mol fraction of the nth substance listed; settings: 101 kPa, Liquid

CCOC(=O)OCC [diethyl carbonate]
Settings	mass density [kg/m3]	refractive index
[1]	974.65	–
[2]	–	1.3845

CCCCCCO [hexan-1-ol]
Settings	mass density [kg/m3]	refractive index
[1]	818.84	–
[2]	–	1.4178

CCOC(=O)OCC [diethyl carbonate] + CCCCCCO
mass density [kg/m3], [3]
Settings	293.15 K	303.15 K	313.15 K	323.15 K
x1 = 0.0502	825.96	818.55	811.04	803.29
x1 = 0.1123	834.86	827.16	819.37	811.3
x1 = 0.1499	840.29	832.48	824.54	816.2
x1 = 0.2103	849.1	841.04	832.78	824.2
x1 = 0.2508	855.05	846.79	838.35	829.57
x1 = 0.3121	864.19	855.69	846.97	837.88
x1 = 0.3576	871.02	862.23	853.42	844.05
x1 = 0.4113	879.15	870.21	861.12	851.48
x1 = 0.4632	887.08	877.88	868.59	858.73
x1 = 0.5111	894.51	885.13	875.61	865.59
x1 = 0.552	900.88	891.35	881.55	871.51
x1 = 0.6008	908.59	898.87	888.91	878.65
x1 = 0.6498	916.39	906.42	896.35	885.85
x1 = 0.7108	926.19	915.93	905.65	894.96
x1 = 0.7554	933.45	923.08	912.55	901.77
x1 = 0.8112	942.65	932.03	921.16	910.41
x1 = 0.8501	949.13	938.29	927.49	916.42
x1 = 0.9002	957.5	946.57	935.57	924.3
x1 = 0.9555	966.89	955.77	944.49	933.24

CC(=O)c1ccccc1 [acetophenone]
Settings	mass density [kg/m3]	refractive index
[1]	1027.93	–
[2]	–	1.5336
